The values that follow come from US4032573A, “Ortho-acylated anilide derivatives and salts thereof” (Sumitomo Chemical Company, Limited, priority 1976, dated 1977).

In one assay the test system is guinea pigs. Briefly: Local anesthetic activity in guinea pigs (method of Bulbring and Waida), intracutaneous injection. The format is in vivo. As for the experimental part:
1. Local anesthetic activity
The local anesthetic activity of each of the compounds was determined in accordance with the method of Bulbring E. and Waida, Journal Pharmacol. Exp. Ther., 85, 78 (1945).

In a further assay the test system is mice. Briefly: Anti-arrhythmic activity in mice (method of Lawson), intraperitoneal injection. In kind it is in vivo. As to conditions: Mus musculus, ip. The protocol: 2. Anti-arrhythmic activity
The anti-arrhythmic activity of each of the compounds was determined in accordance with the method of J. W. Lawson, Journal Pharmacol. Exp. Ther., 160, 22 (1967).

The term ED50 denotes the midpoint of the dose-response relation. Low readings indicate greater potency, high ones weaker potency. For the compound `CCN(CC)CC(=O)Nc1c(C)cccc1C(C)=O`, the “Local anesthetic activity in guinea pigs ED50 intracutaneous injection” value (shortened to “Local anesthetic activity”) in the assay on guinea pigs was 0.12 W/V %. Also, the ED50 in the assay with mice came out at 80 mg/kg.
For `CCN(CC)CCC(=O)Nc1cc(C(C)=O)ccc1C`, the “Local anesthetic activity” value with guinea pigs is on record as 1.48 W/V %. Moreover, it took a dose of 97 mg/kg to reach the 50% effect level in the assay on mice (ED50).
Consider `CCCC(=O)c1cccc(C)c1NC(=O)CCN(CC)CC`, for which the “Local anesthetic activity” value with guinea pigs amounted to 0.09 W/V %. In the assay on mice, this compound returned an ED50 of 25 mg/kg.
Taken in the same sequence, the figures for `CCN(CC)CCC(=O)Nc1c(C)cccc1C(C)=O` were 0.33 W/V % and 50 mg/kg.
In the same order, the values of `CCN(CC)CC(=O)Nc1ccc(C(C)=O)cc1` are 1.0 W/V % and 250 mg/kg.
Taken in the same sequence, the figures for `CCN(CC)CC(=O)Nc1cccc(C(C)=O)c1` were 1.0 W/V % and 180 mg/kg.
